Entries after “also recorded” stand apart in the source; their conditions may differ. Like-named read-outs stand apart in the source and are kept apart here. Blank lines part the entries; values can stand above or below the compound they belong to.
How the values were obtained:
[1] = tested on: TPO (thyroid peroxidase) expression; test: Inhibition of TPO expression in SNU760 cells; type: cell-based; conditions: 50 uM, SNU760 Human Thyroid cell lines, FIG. 2
Experimental: (§1) To confirm whether the imidazopyridine scaffold-bearing compounds screened in Example 1 could be used as treatments for Graves' disease, SNU760 Human Thyroid cell lines were treated with various concentrations of each compound and then analyzed their ability to inhibit the expression of TPO (thyroid peroxidase) and TG (thyroglobulin).

[2] = tested on: TG (thyroglobulin) expression; test: Inhibition of TG expression in SNU760 cells; type: cell-based; conditions: 50 uM, SNU760 Human Thyroid cell lines, FIG. 2
Experimental: as §1

[3] = tested on: Graves' disease-induced mice; test: Thyroid size in Graves' disease-induced (Ad-TSHR) mice; type: in vivo, BALB/c mice; conditions: 10 mg/kg daily for three weeks, abdominal cavity, vs Ad-TSHR group, FIG. 7
Experimental: (§2) To create a mouse model with induced Graves' disease, 6-week-old female BALB/c mice were used. The thyroid stimulating hormone receptor (TSHR) expressing adenovirus, Ad-TSHR, was purchased from VectorBuilder (Chicago, USA, www.vectorbuilder.com). […] The virus was injected three times at three-week intervals, totaling nine weeks of injections to induce overexpression of TSHR and thereby cause Graves' disease.
(§3) In the Graves' disease-induced mouse model established in <3-1>, the therapeutic effectiveness of the imidazopyridine scaffold-bearing compounds screened in the present disclosure was evaluated.
(§4) After extracting the thyroid glands from each mouse, the sizes of the thyroids were visually compared, and the concentration of thyroxine (T4) in the blood was analyzed.

[4] = tested on: Graves' disease-induced mice; test: Serum thyroxine (T4) in Graves' disease-induced (Ad-TSHR) mice; type: in vivo, BALB/c mice; conditions: 10 mg/kg daily for three weeks, abdominal cavity, FIG. 8
Experimental: as §2, §3, §4
After administering drugs for three weeks to mice in which Graves' disease was induced by the Ad-TSHR virus over nine weeks, the serum was isolated to measure the concentration of thyroxine (T4).

thyroid peroxidase (TPO) = thyroid peroxidase (TPO) (Homo sapiens (Human), UniProt P07202); test: Thyroid peroxidase (TPO) inhibition IC50; type: biochemical; conditions: Table 3
Human MPO = Human MPO (Homo sapiens (Human), UniProt P05164); test: Myeloperoxidase (MPO) inhibition IC50 screening; type: biochemical
Text: To discover new therapeutics for the treatment of Graves' disease, the inventors screened compounds for inhibition activity against myeloperoxidase (MPO). The screening process is schematically represented in FIG. 1. Use was made of approximately 7,000 compounds for the screening.

HL-60 MPO = HL-60 MPO (Homo sapiens (Human), UniProt P05164); test: HL-60 MPO inhibition, drugs treated to media; type: cell-based
Experimental: The screening of compounds for MPO inhibition activity was conducted in three stages.

HL-60 MPO, sequence (P05164 49-745): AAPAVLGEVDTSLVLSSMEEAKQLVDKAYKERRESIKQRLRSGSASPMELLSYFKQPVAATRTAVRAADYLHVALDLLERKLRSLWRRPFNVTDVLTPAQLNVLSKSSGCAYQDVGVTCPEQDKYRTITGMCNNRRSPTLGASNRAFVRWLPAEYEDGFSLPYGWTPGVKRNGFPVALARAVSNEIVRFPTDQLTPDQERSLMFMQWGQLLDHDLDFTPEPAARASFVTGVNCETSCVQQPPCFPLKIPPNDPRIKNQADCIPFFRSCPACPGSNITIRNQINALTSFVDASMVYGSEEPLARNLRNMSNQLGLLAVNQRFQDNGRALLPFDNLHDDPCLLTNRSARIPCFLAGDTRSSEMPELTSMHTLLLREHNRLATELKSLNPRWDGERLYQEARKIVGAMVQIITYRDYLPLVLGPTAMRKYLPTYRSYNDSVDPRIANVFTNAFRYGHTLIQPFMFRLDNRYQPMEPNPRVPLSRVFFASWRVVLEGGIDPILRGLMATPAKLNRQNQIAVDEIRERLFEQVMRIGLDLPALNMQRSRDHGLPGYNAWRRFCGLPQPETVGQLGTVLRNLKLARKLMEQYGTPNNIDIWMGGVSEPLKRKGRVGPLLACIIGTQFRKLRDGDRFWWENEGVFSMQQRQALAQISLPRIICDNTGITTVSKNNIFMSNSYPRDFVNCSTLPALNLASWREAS
Human MPO, sequence (P05164 49-745): as above
thyroid peroxidase (TPO), sequence (P07202 19-933, species assumed): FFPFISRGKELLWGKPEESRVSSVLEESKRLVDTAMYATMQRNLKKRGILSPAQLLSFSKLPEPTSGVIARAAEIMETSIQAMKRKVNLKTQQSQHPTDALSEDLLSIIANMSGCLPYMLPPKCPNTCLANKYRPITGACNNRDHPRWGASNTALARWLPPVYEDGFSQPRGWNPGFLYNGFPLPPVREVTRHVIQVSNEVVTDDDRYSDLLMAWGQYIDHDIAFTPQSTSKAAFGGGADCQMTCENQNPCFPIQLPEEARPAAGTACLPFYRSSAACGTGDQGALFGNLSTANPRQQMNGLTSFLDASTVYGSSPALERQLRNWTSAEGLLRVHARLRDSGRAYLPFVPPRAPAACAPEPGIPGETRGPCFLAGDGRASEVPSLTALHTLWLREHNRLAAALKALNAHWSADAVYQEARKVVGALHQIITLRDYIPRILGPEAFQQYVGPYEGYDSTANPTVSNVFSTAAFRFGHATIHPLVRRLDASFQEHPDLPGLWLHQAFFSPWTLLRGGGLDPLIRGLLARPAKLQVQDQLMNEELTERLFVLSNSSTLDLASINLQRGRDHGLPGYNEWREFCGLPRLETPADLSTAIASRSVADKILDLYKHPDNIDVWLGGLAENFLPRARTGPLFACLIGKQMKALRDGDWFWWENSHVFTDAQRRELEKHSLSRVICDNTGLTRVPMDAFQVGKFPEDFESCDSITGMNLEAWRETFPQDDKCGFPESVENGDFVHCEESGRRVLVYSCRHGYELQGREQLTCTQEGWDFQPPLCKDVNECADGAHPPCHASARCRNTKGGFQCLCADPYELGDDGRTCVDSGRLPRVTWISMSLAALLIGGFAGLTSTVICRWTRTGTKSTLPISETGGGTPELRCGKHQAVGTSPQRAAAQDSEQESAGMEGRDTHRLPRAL

Structure (SMILES): Cc1ccc2nc(-c3cccnc3)c(Nc3ccc4c(c3)OCO4)n2c1 [NE-2-6, N-(2H-1,3-BENZODIOXOL-5-YL)-6-METHYL-2-(PYRIDIN-3-YL) IMIDAZO [1,2-A]PYRIDIN-3-AMINE]
- inhibition of the expression of TPO [1]: ~100%
- inhibition of the expression of TG [2]: ~100%
- thyroid size (visually compared) [3]: effectively reduced thyroid sizes; also recorded: nearly restored to normal levels
- serum thyroxine (T4) concentration [4]: significant reduction; also recorded: more effective

- IC50 (thyroid peroxidase (TPO)): 0.02 µM
Structure (SMILES): COc1ccc(-c2nc3cc(C)ccn3c2Nc2ccc3c(c2)OCO3)cc1 [NE-2-7, N-(2H-1,3-BENZODIOXOL-5- YL)-2-(4-METHOXYPHENYL)-7- METHYLIMIDAZO[1,2- A]PYRIDIN-3-AMINE]

- IC50 (Human MPO; Chemical Library 2nd Screening, MPO, read-out: IC50): 0.021 µM
- IC50 (Human MPO; Chemical Library 3rd Screening, read-out: IC50 (uM) (Human MPO)): 0.021 µM
- HL-60 MPO Inhibition (%) (treat to media) (HL-60 MPO; 2nd Screening): 0%
- inhibition at 25 µM (HL-60 MPO; HL-60, 3rd Screening, 25 uM, read-out: HL-60 MPO Inhibition (%) (25 uM of Drugs are treated to media)): 0%
Structure (SMILES): CC(C)OCCn1c(=S)[nH]c(=O)c2[nH]ccc21 [AZD3241]
